Laboratory results: the supplement of paper PMC10307832

Columns and labels:
Experiment in all cases: relative viability (nuclei count vs DMSO), 5 days (fraction); higher = more cells survive
[1] = compound: C1/C(=C\C2=CC=CS2)/C(=O)/C(=C/C3=CC=CS3)/C1 + C[C@]1(O)C[C@@H](c2nc(-c3ccc4ccc(-c5ccccc5)nc4c3)c3c(N)nccn32)C1 [Linsitinib] (partner 1 µM)
How it was run: (§1)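 Relative viability was taken as the ratio of nuclei in treated wells to nuclei in vehicle wells. Lung cancer cell lines in 1536-well plates received compounds by pin tool one day after seeding, either one drug alone or a fixed anchor-drug dose plus five library-drug doses (not always all listed) in √10 steps. Nuclei were counted on 4× images after 5 days of treatment, and values are medians of duplicate plates.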

[2] = compound: C[C@]12O[C@H](C[C@]1(O)CO)n1c3ccccc3c3c4c(c5c6ccccc6n2c5c31)CNC4=O [Lestaurtinib] + COc1cc2c(Oc3ccc(NC(=O)C4(C(=O)Nc5ccc(F)cc5)CC4)cc3F)ccnc2cc1OCCCN1CCOCC1 [Foretinib] (partner 0.25 µM)
How it was run: as §1

[3] = compound: C[C@]12O[C@H](C[C@]1(O)CO)n1c3ccccc3c3c4c(c5c6ccccc6n2c5c31)CNC4=O [Lestaurtinib] + Cc1nc(NC(=O)N2CCC[C@H]2C(N)=O)sc1-c1ccnc(C(C)(C)C(F)(F)F)c1 [Alpelisib] (partner 2 µM)
How it was run: as §1

[4] = compound: C1=CC(=CC=C1C2=CC(=C(S2)NC(=O)N)C(=O)N)F [TPCA-1] + CC1(C)CCC(c2ccc(Cl)cc2)=C(CN2CCN(c3ccc(C(=O)NS(=O)(=O)c4ccc(N[C@H](CCN5CCOCC5)CSc5ccccc5)c(S(=O)(=O)C(F)(F)F)c4)cc3)CC2)C1 [Navitoclax] (partner 0.5 µM)
How it was run: as §1

| Cell Line | relative viability ([1]; first compound 0.2 µM) | relative viability ([1]; first compound 0.6325 µM) | relative viability ([1]; first compound 2 µM) | relative viability ([1]; first compound 6.325 µM) | relative viability ([1]; first compound 20 µM) | relative viability ([2]; first compound 0.005 µM) | relative viability ([2]; first compound 0.01581 µM) | relative viability ([2]; first compound 0.05 µM) | relative viability ([2]; first compound 0.1581 µM) | relative viability ([2]; first compound 0.5 µM) | relative viability ([3]; first compound 0.005 µM) | relative viability ([3]; first compound 0.01581 µM) | relative viability ([3]; first compound 0.05 µM) | relative viability ([3]; first compound 0.1581 µM) | relative viability ([3]; first compound 0.5 µM) | relative viability ([4]; first compound 0.04 µM) | relative viability ([4]; first compound 0.1265 µM) | relative viability ([4]; first compound 0.4 µM) | relative viability ([4]; first compound 1.265 µM) | relative viability ([4]; first compound 4 µM) |
| --- | --- | --- | --- | --- | --- | --- | --- | --- | --- | --- | --- | --- | --- | --- | --- | --- | --- | --- | --- | --- |
| LCLC-103H | 1.12 | 1.16 | 1.15 | 0.975 | 0.995 | 0.752 | 0.848 | 0.547 | 0.485 | 0.261 | 1.06 | 0.991 | 0.678 | 0.683 | 0.651 | – | – | – | – | – |
| NCI-H1792 | 0.523 | 0.618 | 0.617 | – | 0.451 | – | – | – | – | – | 0.858 | 0.875 | 0.516 | 0.429 | 0.209 | 0.714 | 0.622 | 0.677 | 0.621 | 0.279 |
| NCI-H1563 | 1.43 | 1.16 | 1.28 | 0.893 | 1.08 | 0.977 | 0.96 | 0.978 | 0.97 | 0.991 | 0.88 | 0.954 | 0.944 | 0.865 | 0.813 | – | – | – | – | – |
| NCI-H661 | 0.692 | 0.465 | 0.508 | 0.559 | 0.48 | 1.02 | 0.935 | 1.02 | 0.933 | 0.421 | 0.618 | 0.953 | 0.495 | 0.477 | 0.406 | – | – | – | – | – |
| HCC-44 | 0.633 | 0.748 | 0.693 | 0.592 | 0.655 | – | – | – | – | – | 0.782 | 0.973 | 0.644 | 0.834 | 0.469 | 0.973 | 0.983 | 1.04 | 0.927 | 0.915 |
| NCI-H650 | 0.96 | 0.86 | 0.896 | 0.903 | 0.803 | 1.04 | 1.17 | 0.839 | 0.689 | 0.584 | 1.24 | 1.04 | 0.748 | 0.49 | 0.429 | – | – | – | – | – |
| NCI-H358 | 0.887 | 0.757 | 0.821 | 0.644 | 0.809 | 0.621 | 0.436 | 0.358 | 0.201 | 0.108 | 0.656 | 0.601 | 0.343 | 0.266 | 0.202 | – | – | – | – | – |
| ChaGo-K-1 | – | – | – | – | – | 0.946 | 1.04 | 0.828 | 0.788 | 0.373 | – | – | – | – | – | 0.959 | 0.927 | 1.13 | 0.98 | 0.406 |
| ABC-1 | 0.931 | 0.879 | 0.882 | 0.671 | 0.802 | 1.04 | 1.33 | 0.991 | 0.962 | 0.204 | 1.06 | 1.02 | 0.845 | 0.658 | 0.262 | – | – | – | – | – |
| NCI-H2170 | – | – | – | – | – | 0.969 | 1.02 | 0.907 | 0.962 | 0.358 | 0.698 | 0.707 | 0.592 | 0.699 | 0.404 | 0.666 | 0.52 | 0.497 | 0.559 | 0.264 |
